Measurements: patent US7034005B2, “Use of agent for suppressing infection and proliferation of human immunodeficiency syndrome virus” (The Kitasato Institute, priority 2002, dated 2006)

Columns and labels:
[1] = tested on: HIV-1BAL strain in GM type macrophage (GM-MΦ) derived from human monocytes; assay: Proliferation of HIV-1 in GM-MΦ: p24 protein in culture supernatant by sandwich ELISA; assay type: cell-based; conditions: for viral generation in GM-MΦ: 30 μM, HIV-1BAL, all assay points up to 14 days, similar to DMSO control (FIG. 14)
Experimental: (§1) Macrophages derived from monocytes were prepared by culturing the recovered monocytes in the presence of M-CSF (macrophage colony-stimulating factor) (10^4 U/ml, provided by Morinaga Milk Co.), granulocytes and granulocyte-macrophage colony-stimulating factor, GM-CSF) (500 U/ml, provided by Japan Scheling Plough Co., Osaka, or purchased from R & S Genzyme-TECHNE Inc.) with RPMI1640 medium added with FCS10% (Nissui Seiyaku Co., Tokyo) for 7–8 days.
(§2) The macrophage prepared by differential induction of M-CSF from human monocytes is designated as M type macrophage (M type MΦ or M-MΦ) and the macrophage prepared by differential induction of GM-CSF from human monocytes is designated as GM type macrophage (GM type MΦ or GM-MΦ) Further, alveolar macrophage (alveolar MΦ or A-MΦ) was prepared as follows. Cells in the alveolar lavage liquid obtained from the alveolar lavage of healthy volunteers were recovered, suspended and adhered to plastics, then the non-adhered cells were washed out and the remained adhered cells were designated as the alveolar MΦ.
(§3) Infection of HIV-1 to macrophage was performed as follows. Macrophage directed viral strains, HIV-1JR-FL and HIV-1BAL, were infected for 2 hours in contact with M-MΦ, GM-MΦ and A-MΦ (adjusted to 2.5×10^5/well, Flacon No3043: Becton Dickinson Labware, Inc. U.S.)at low concentration (p24 antigen titer 50 ng/ml, TCID50=3000/ml virus to final concentration at 100 pg/ml), and non-adsorbed virus to the macrophage was washed out, and cultured with adding fresh medium. In case of the medium with M-MΦ, M-CSF was added (10^4 U/ml), and that of the medium with GM-MΦ, GM-CSF was added (500 U/ml).
(§4) Proliferation of virus was examined with the released viral particles in the culture supernatant after the infection by the sandwich ELISA using two types of anti-p24 antibody (Nu24 and 10B5^13). The following JAM62 and JAM65 were used as LTR (HIV long terminal repeat)-gap gene primer. The following JAM63 and JAM 64 were used as the internal primer for the nested PCR. • JAM62: • 5′-[…]-3′ (SEQ ID NO: 1) • JAM65: • 5′-[…]-3′ (SEQ ID NO: 2) • JAM63: • 5′-GTGTOACTCTGGTAACTAGAGATCC-3′ (SEQ ID NO: 3) • JAM64: • 5′-[…]-3′ (SEQ ID NO: 4) (1-4) Assay of Expression of Tyrosine Kinase Hck Protein and Transcription Factor C/EBPβ Protein
(§5) In order to show growth suppression effect of the present invention, among macrolide derivatives, EM, EM201, EM202, EM703, CAM, EM722, EM730, EM732, EM736, EM734, EM735, EM747, EM748, EM743, EM746, EM750 or EM751 was dissolved in DMSO with each 100 mM concentration, and used in dilution with the medium thereafter. A control group was M-MΦ treated only with DMSO used for dissolving macrolide derivatives.
(§6) M-MΦ and GM-M Φ were subjected to contact infection with HIV-1BAL strain for 2 hours, added 30 μM of EM, EM201, EM202, EM703, CAM,EM722, EM730, EM732, EM736, EM734, EM735, EM747, EM748, EM743, EM746, EM750 or EM751, incubated for 14 days and amount of p24 protein in the cultured supernatant was assayed in the time-dependent manner.

[2] = tested on: transcription factor C/EBPβ protein; assay: Expression of C/EBPβ protein in GM-MΦ by Western blotting; assay type: cell-based, human; conditions: oligonucleotide treated GM-MΦ (FIG. 11)
From the text: (§7) Expression of tyrosine kinase Hck protein and transcription factor C/EBPβ protein in macrophage was examined after solubilizing the macrophage in SDS-PAGE sample buffer, performing 10% SDS-polyacrylamide electrophoresis, transferring the protein on the gel to immobilon P membrane (Millipore Inc. U.S.) and checking antibodies against these proteins by Western blotting. Antibody to tyrosine kinase Hck protein (N-30) and antibody to C/EBPβ (C-19) were purchased from Santacluse Inc. (U.S.). Western blotting was detected by Amersham ELC Regent (Amersham International plc, Buckinghamshire, UK). Strength of bands was expressed by PSL (photostimulating luminescence) value (A/mm^2).
(§8) These probes were dissolved in the serum free RPMI1640 medium, in which lipofectin (Life Technology Inc., U.S.) was dissolved at 5 μM concentration, at room temperature for 30 minutes, added with RPMI1640 medium, which contains 10% FCS, to the macrophage (final concentration 2 μM) and incubated at 37° C. for 24 hours. Thereafter, cells were washed with the medium, added the RPMI1640 medium containing 10% FCS without oligonucleotide, further cultured for 24 hours, and then infected with HIV-1.

[3] = tested on: tyrosine kinase Hck protein; assay: Expression of tyrosine kinase Hck protein in M-MΦ by Western blotting; assay type: cell-based, human; conditions: 30 μM, day 2 after HIV-1BAL infection, compared with DMSO control (FIG. 18)
From the text: as §7, §8
Consequently, M-MΦ was subjected to contact infection with HIV-1BAL strain for 2 hours, added 30 μM of EM, EM201, EM202, EM703 or CAM, incubated and expression of tyrosine kinase Hck protein was observed on day 2 after the infection by Western blotting.

p38MAPK = assay: Tyrosine phosphorylation (activation) of p38MAPK in HIV-1 infected M-MΦ by Western blotting; assay type: cell-based, human; conditions: 30 μM, day 2 of culture, HIV-1BAL infected M-MΦ, compared with DMSO (FIG. 19(A))
Experimental: (§9) P38MAPK and ERK1/2 activation were determined using P38MAPK antibody, anti-ERK1/2 antibody, anti-tyrosine phosphorylation P38MAPK antibody and anti-tyrosine phosphorylation ERK1/2 antibody (New England Biolabs, Inc. U.S.), and phosphorylation reaction of these molecules was determined by Western blotting.
Thirty μM of EM, EM201, EM202, EM703 or CAM were added to M-MΦ infected with HIV-1BAL strain, tyrosine phosphorylation of p38MAPK was detected on day 2 of the culture by Western blotting. […] In any groups, total amount of p38MAPK (total sum of phosphorylated and non-phosphorylated p38MARK) was equal.

[4] = tested on: HIV-1BAL strain in M type macrophage (M-MΦ) derived from human monocytes; assay: Proliferation of HIV-1 in M-MΦ: p24 protein in culture supernatant by sandwich ELISA; assay type: cell-based; conditions: for suppression of viral generation (p24 in culture supernatant) in M-MΦ: 30 μM, HIV-1BAL, 14 days of culture, compared with DMSO control (FIG. 13); for viral proliferation at 300 μM in M-MΦ: also observed in DMSO control, ascribed to cytotoxicity of DMSO; for concentration dependence of suppressive action on HIV-1BAL in M-MΦ: various concentrations (FIG. 16)
Experimental: as §1, §2, §3, §4, §5, §6

[5] = tested on: HIV-1BAL strain infected M-MΦ; assay: Cytopathy (MGC formation) of HIV-1 infected M-MΦ; assay type: cell-based, human; conditions: 30 μM, HIV-1BAL (FIG. 17)
Experimental: Formation of cell cluster and cell fusion was observed from the 2nd day of the incubation only in virus producing M-MΦ and formation of multinucleatic giant cells were recognized from the culture day 4–7 [refer to FIG. 2(A)]. On the other hand, in GM-MΦ without generation of virus, nomorphological changes were observed [refer to FIG. 2(B)].
M-MΦ was subjected to contact infection with HIV-1BAL strain for 2 hours, added 30 μM of EM, EM201, EM202, EM703 or CAM, incubated and observed the cell morphology.

ERK1/2 = assay: Tyrosine phosphorylation (activation) of ERK1/2 in HIV-1 infected M-MΦ by Western blotting; assay type: cell-based, human; conditions: 30 μM, HIV-1BAL infected M-MΦ, compared with DMSO (FIG. 19(B))
Experimental: as §9
In any groups, total amount of ERK1/2 (total sum of phosphorylated and non-phosphorylated p38MARK) was equal [refer to FIG. 19(B)].

C/EBPβ-S: Phosphorothioate-modified sense oligonucleotide probe of C/EBPβ, 5′-CCGCGTTCATOCAACOCCTG-3′ (SEQ ID NO: 9) (sense CCGCGTTCATGCAACGCCTG; all phosphorothioate, sugars by position and methylation of C not given here) [reference compound]
HIV-1 growth promotion (p24 in culture supernatant) in oligonucleotide pretreated GM-MΦ ([1]; HIV-1 infection after pretreatment (FIG. 12)): not recognized | changes in expression of C/EBPβ in GM-MΦ [2]: not recognized

CC[C@H]1OC(=O)[C@H](C)[C@@H](O[C@H]2C[C@@](C)(OC)[C@@H](O)[C@H](C)O2)[C@H](C)[C@@H](O[C@@H]2O[C@H](C)C[C@H](N(C)C)[C@H]2O)[C@](C)(OC)C[C@@H](C)C(=O)[C@H](C)[C@@H](O)[C@]1(C)O [CAM, Oxacyclotetradecane-2,10-dione,4-[(2,6-dideoxy-3-O-methyl-α-L-ribo-hexopyranosyl)oxy]-14-ethyl-12,13-dihydroxy-7-methoxy-3,5,7,9,11,13-hexamethyl-6-[[3,4,6-trideoxy-3-(dimethylamino)-β-D-xylo-hexopyranosyl]oxy], reference compound]
expression of tyrosine kinase Hck protein in HIV-1 infected M-MΦ [3]: the suppression of tyrosine kinase Hck protein was observed, though not so strong | tyrosine phosphorylation of p38MAPK (p38MAPK): recognized to decrease, though not so strong | viral generation in GM-MΦ [1]: almost no viral generation was recognized | suppression of viral generation (p24 in culture supernatant) in M-MΦ [4]: approximately ½ | viral proliferation at 300 μM in M-MΦ [4]: viral proliferation at 300 μM was observed | concentration dependence of suppressive action on HIV-1BAL in M-MΦ [4]: exhibited suppression of viral production depending upon drug concentration | cytopathic effect (MGC formation) in HIV-1 infected M-MΦ [5]: formation of MGC was slightly recognized | tyrosine phosphorylation of ERK1/2 (ERK1/2): weakly recognized as same in the control group

CC[C@H]1OC(=O)[C@H](C)[C@@H](O[C@H]2C[C@@](C)(OC)[C@@H](O)[C@H](C)O2)[C@H](C)[C@@H](O[C@@H]2O[C@H](C)C[C@H](N(C)C)[C@H]2O)[C@@]2(C)C[C@@H](C)[C@@]3(O[C@@]1(C)[C@H](O)[C@H]3C)O2 [EM202, 6,9,12-Anhydroerythromycin A]
expression of tyrosine kinase Hck protein in HIV-1 infected M-MΦ [3]: the suppression of tyrosine kinase Hck protein was observed, though not so strong | tyrosine phosphorylation of p38MAPK (p38MAPK): recognized to decrease, though not so strong | viral generation in GM-MΦ [1]: almost no viral generation was recognized | suppression of viral generation (p24 in culture supernatant) in M-MΦ [4]: suppression of viral generation was recognized, though not so strong | viral proliferation at 300 μM in M-MΦ [4]: viral proliferation at 300 μM was observed | concentration dependence of suppressive action on HIV-1BAL in M-MΦ [4]: exhibited suppression of viral production depending upon drug concentration | cytopathic effect (MGC formation) in HIV-1 infected M-MΦ [5]: formation of MGC was slightly recognized | tyrosine phosphorylation of ERK1/2 (ERK1/2): weakly recognized as same in the control group
